How the values were obtained:
[1] = Inhibition of chimpanzee P2Y14 receptor; parameters: species or system Pan troglodytes
[2] = Half life in C57BL/6 mouse at 50 mg/kg, po; format: ADME, organism-based; conditions: in vivo
[3] = target: T1, P2Y purinoceptor 14 (Mus musculus, UniProt Q9ESG6); assay: Inhibition of mouse P2Y14 receptor
T1 sequence (Q9ESG6 whole entry): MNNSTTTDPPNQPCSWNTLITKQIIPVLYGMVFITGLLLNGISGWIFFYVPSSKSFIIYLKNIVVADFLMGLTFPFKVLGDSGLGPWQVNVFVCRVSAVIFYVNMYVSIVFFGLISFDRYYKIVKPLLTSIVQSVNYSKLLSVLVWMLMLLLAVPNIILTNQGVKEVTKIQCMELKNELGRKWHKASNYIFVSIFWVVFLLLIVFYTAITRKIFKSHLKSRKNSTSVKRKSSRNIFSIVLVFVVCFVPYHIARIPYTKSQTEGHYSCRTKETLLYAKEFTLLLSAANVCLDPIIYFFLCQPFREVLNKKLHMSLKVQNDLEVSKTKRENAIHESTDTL

[4] = target: T1, P2Y purinoceptor 14; assay: Inhibition of mouse P2Y14 receptor in presence of 2% HSA
[5] = Clearance in C57BL/6 mouse at 50 mg/kg, po; format: ADME, organism-based; conditions: in vivo

Ki [1] [nM]	half-life [2] [h]	Ki [3] [nM]	Ki [4] [nM]	CL/F [5] [mL/min/kg]	IC50 [1] [nM]	Compound
1.9	–	–	–	–	–	O=C(O)c1cc(-c2ccc(C3CCNCC3)cc2)c2ccc(-c3ccc(C(F)(F)F)cc3)cc2c1 [PPTN]
–	3	4	1290	1.6	–	O=C(O)c1cc(-c2ccc([C@@H](O)C(F)F)cc2)c2ccc(-c3ccc(C(F)(F)F)cc3)cc2c1
14	–	–	–	–	4	Cc1cc(F)cc(C)c1COc1ccc2c(-c3ccsc3)cc(C(=O)O)cc2c1
